Patent US11724980B2, “Quinones having high capacity retention for use as electrolytes in aqueous redox flow batteries” (President and Fellows of Harvard College, priority 2018, dated 2023)
Several values for one entry are separate records, joined by “and”; a condition that tells them apart may be missing. Equal entries are not always repeated.

Key:
[1] = CV simulation as two one-electron reductions; format: physicochemical; details: 5 mM in 1 M KOH
Protocol: FIG. 6. Capacitance-corrected CV of 5 mM 2,6-DBEAQ in 1 M KOH (solid grey line). The dashed red line represents the simulated total current arising from two successive one-electron reductions with reduction potentials of −0.517 and −0.511 V vs. SHE, according to the procedure outlined in a previous publication.^1 Each simulated reduction has a rate constant ko=7×10^−3 cm/s and α=0.5.
A first CV experiment was performed in which 2,6-DBEAQ was dissolved in pH 14 KOH solution at a concentration of 5 mM. CV measurements were plotted in FIG. 5A and include results for the isomers of 2,6-DBEAQ.
Following our previous study on 2,6-DHAQ^17 and literature reports^1,18 on quinone electrochemistry in the absence of proton donors, we simulated the CV of 2,6-DBEAQ as representing two reversible electron transfer steps at two different potentials E1 and E2. The separation between simulated redox potentials for the first (E1) and second (E2) electron reductions for 2,6-DBEAQ is considerably narrower than the corresponding peak separation for 2,6-DHAQ^17 (6 mV vs. 60 mV).
The pH dependence of the proton-coupled electron transfer (POET) redox reaction for a generalized anthraquinone (AQ) is often visualized by the nine-membered square scheme (FIG. 7). The horizontal direction indicates electron transfer (ET), and the vertical direction indicates proton transfer (PT or protonation). Under strongly alkaline conditions, where the pH is higher than the second pKa (pKa2) of the reduced AQ (AQ^2−), no protonation of the semiquinone anion will take place, and reduction proceeds via two ET steps, from AQ to a semiquinone (AQ-^●) at E1, and from AQ-^● to AQ^2− at E2 which is typically <E1. Depending on the value of E1-E2, the mechanism of AQ reduction in alkaline conditions can either be a concerted one-step, two-electron process or two single-electron processes. […]

[2] = Cyclic voltammetry on glassy carbon electrode; format: physicochemical
Protocol: Glassy carbon was used as the working electrode for all three-electrode CV tests. RDE experiments were conducted using a Pine Instruments Modulated Speed Rotator AFMSRCE equipped with a 5 mm diameter glassy carbon working electrode, a Ag/AgCl reference electrode (BASi, pre-soaked in 3 M NaCl solution), and a graphite counter electrode. The electrode was rotated at a specific speed while the voltage was linearly swept from −0.4 to −0.11 V vs. Ag/AgCl (FIG. 4A). […].
A second CV experiment was performed in which 2,6-DBEAQ was dissolved in pH 14 KOH solution at a concentration of 2 mM. CV measurements were plotted in FIG. 4C. The standard equilibrium potential was determined to be −0.49 V vs. SHE. The separation between the peaks in the CV curves was 42 mV, indicating fairly rapid and reversible electrochemical reactions at the surface of the electrodes.

O=C([O-])CCCOc1ccc2c(c1)C(=O)c1ccc(OCCCC(=O)[O-])cc1C2=O.[K+].[K+] [2,6-DBEAQ, 4,4′-((9,10-anthraquinone-2,6-diyl)dioxy)dibutyric acid]
rate constant ko of each simulated reduction ([1]; α=0.5): 0.007 cm/s | E1-E2 separation ([1]; simulated CV): 6 mV | redox potential higher than that of 2,6-DHAQ [2]: ~200 mV | pH above which the potential is pH-independent ([2]; Pourbaix diagram): 11.5 and ~11.5 | Pourbaix diagram slope ([2]; fit to data below pH 12): −35 mV/pH | separation between the peaks in the CV curves ([2]; pH 14 KOH, 2 mM): 42 mV | standard equilibrium potential ([2]; pH 14 KOH, 2 mM): −0.49 V vs. SHE
